Laboratory results: patent publication US20230037453A1, “PREPARATION FOR USE AS VASORELAXANT” (Evonik Operations GmbH, priority 2020, published 2023)

System: mice mesenteric arteries
Assay: Vascular reactivity: vasorelaxation of phenylephrine-precontracted mesenteric arteries (wire or pressure myograph)
Format: cell-based
Conditions: phenylephrine-precontracted mice mesenteric arteries, increasing doses 5 - 300 µg/mL
Experimental: Second-order branches of the mesenteric arterial tree were removed from mice to perform vascular studies. […] First, an analysis of vascular reactivity curves was performed. In particular, vasoconstriction was assessed with 80 mmol/L of KCI or with increasing doses of phenylephrine (from 10^-9 M to 10^-6 M) in control conditions. Endothelium-dependent and -independent relaxations were assessed by measuring the dilatory responses of mesenteric arteries to cumulative concentrations of acetylcholine (from 10^-9 M to 10^-6 M) or nitroglycerine (from 10^-9 M to 10^-6 M) respectively, in vessels precontracted with phenylephrine at the dose necessary to obtain a similar level of precontraction in each ring (80% of initial KCI-evoked contraction). Caution was taken to avoid endothelial damage; functional integrity was reflected by the response to acetylcholine (from 10^-9 M to 10^-6 M). […]
F) Comparison of vasorelaxant effect of AvailOm®, ω 3-FA, ω 3-EE or L-Lysine. Statistical analyses were performed using two-way ANOVA followed Bonferroni post-hoc test. *p<0.05; **p<0.01, ***p<0.001.

| Molecule | direct vasorelaxant action (dose-response) |
| --- | --- |
| NCCCC[C@H](N)C(=O)O [L-Lysine] | did not evoke any vasorelaxant effect |

Same assay, conditions: single anthocyanins 1 - 100 µg/mL, dose-response curves

| Molecule | vasorelaxation reached |
| --- | --- |
| C[C@@H]1O[C@@H](OC[C@H]2O[C@@H](Oc3cc4c(O)cc(O)cc4[o+]c3-c3ccc(O)c(O)c3)[C@H](O)[C@@H](O)[C@@H]2O)[C@H](O)[C@H](O)[C@H]1O [C3-rut, Cyanidin-3-rutinoside] | ~36,5% |
| OC[C@H]1O[C@@H](Oc2cc3c(O)cc(O)cc3[o+]c2-c2cc(O)c(O)c(O)c2)[C@H](O)[C@@H](O)[C@H]1O [DP3-gal, Delphinidin-3-galactoside] | about 32,5% |

Same assay, conditions: single anthocyanins 1 - 100 µg/mL, phenylephrine-precontracted mice mesenteric arteries

| Molecule | direct vascular action: dose-dependent vasorelaxation compared with Healthberry 865 |
| --- | --- |
| COc1cc(-c2[o+]c3cc(O)cc(O)c3cc2O[C@@H]2O[C@H](CO)[C@H](O)[C@H](O)[C@H]2O)cc(OC)c1O [MAL3-gal, Malvidin-3-galactoside] | none of the single anthocyanins was able to evoke a dose-dependent vasorelaxation comparable to that observed after Healthberry 865® administration |
| C[C@@H]1O[C@@H](OC[C@H]2O[C@@H](Oc3cc4c(O)cc(O)cc4[o+]c3-c3ccc(O)c(O)c3)[C@H](O)[C@@H](O)[C@@H]2O)[C@H](O)[C@H](O)[C@H]1O [C3-rut, Cyanidin-3-rutinoside] | none of the single anthocyanins was able to evoke a dose-dependent vasorelaxation comparable to that observed after Healthberry 865® administration |
| OC[C@H]1O[C@@H](Oc2cc3c(O)cc(O)cc3[o+]c2-c2ccc(O)c(O)c2)[C@H](O)[C@@H](O)[C@H]1O [C3-gal, Cyanidin-3-galactoside] | able to reproduce the direct vasorelaxant effect of Healthberry 865® |
| OC[C@H]1O[C@@H](Oc2cc3c(O)cc(O)cc3[o+]c2-c2cc(O)c(O)c(O)c2)[C@H](O)[C@@H](O)[C@H]1O [DP3-gal, Delphinidin-3-galactoside] | none of the single anthocyanins was able to evoke a dose-dependent vasorelaxation comparable to that observed after Healthberry 865® administration |
| OC[C@H]1O[C@@H](Oc2cc3c(O)cc(O)cc3[o+]c2-c2ccc(O)c(O)c2)[C@H](O)[C@@H](O)[C@@H]1O [C3-glu, Cyanidin-3-glucoside] | none of the single anthocyanins was able to evoke a dose-dependent vasorelaxation comparable to that observed after Healthberry 865® administration |
| COc1cc(-c2[o+]c3cc(O)cc(O)c3cc2O[C@@H]2O[C@H](CO)[C@@H](O)[C@H](O)[C@H]2O)cc(OC)c1O [MAL3-glu, Malvidin-3-glucoside] | none of the single anthocyanins was able to evoke a dose-dependent vasorelaxation comparable to that observed after Healthberry 865® administration |
| OC[C@H]1O[C@@H](Oc2cc3c(O)cc(O)cc3[o+]c2-c2cc(O)c(O)c(O)c2)[C@H](O)[C@@H](O)[C@@H]1O [DP3-glu, Delphinidin-3-glucoside] | none of the single anthocyanins was able to evoke a dose-dependent vasorelaxation comparable to that observed after Healthberry 865® administration |
| COc1cc(-c2[o+]c3cc(O)cc(O)c3cc2O[C@@H]2O[C@H](CO)[C@@H](O)[C@H](O)[C@H]2O)cc(O)c1O [PT3-glu, Petunidin-3-glucoside] | none of the single anthocyanins was able to evoke a dose-dependent vasorelaxation comparable to that observed after Healthberry 865® administration |
| Oc1cc(O)c2cc(O[C@H]3OC[C@H](O)[C@H](O)[C@H]3O)c(-c3cc(O)c(O)c(O)c3)[o+]c2c1 [DP3-ara, Delphinidin-3-arabinoside] | none of the single anthocyanins was able to evoke a dose-dependent vasorelaxation comparable to that observed after Healthberry 865® administration |
| Peonidin-3-galactoside [PEO3-gal] | none of the single anthocyanins was able to evoke a dose-dependent vasorelaxation comparable to that observed after Healthberry 865® administration |
